This note sets out measurements from ChEMBL document CHEMBL1121950, “Species- or isozyme-specific enzyme inhibitors. 9. Selective effects in inhibitions of rat pyruvate kinase isozymes by adenosine 5'-diphosphate derivatives” (J Med Chem, 1982).

Experiment [1] deals with T1, Pyruvate kinase PKM (Rattus norvegicus, UniProt P11980). Briefly: Inhibition of rat muscle pyruvate kinase (PK-M).
Experiment [2] has as its target T2, Pyruvate kinase PKLR (Rattus norvegicus, UniProt P12928). Briefly: Inhibitory constant for inhibition of pyruvate kinase obtained from rat liver (PK-L) was determined using ADP as competitive inhibitor.
In experiment [3] the target is T2, Pyruvate kinase PKLR. Put plainly: Inhibition of rat kidney pyruvate kinase (PK-L).
Experiment [4] has as its target T2, Pyruvate kinase PKLR. Briefly: Inhibition of rat liver pyruvate kinase (PK-L); (relative inhibitory potency).
The target of experiment [5] is T2, Pyruvate kinase PKLR. Put plainly: Inhibition of rat liver pyruvate kinase (PK-L) at 7.2 mM.
The target of experiment [6] is T2, Pyruvate kinase PKLR. Put plainly: Inhibition of rat liver pyruvate kinase (PK-L) at 3.6 mM.
Experiment [7] concerns the target T1, Pyruvate kinase PKM. Briefly: Inhibition of rat muscle pyruvate kinase (PK-M) at 6.7 mM.
Experiment [8] addresses T1, Pyruvate kinase PKM. Briefly: Inhibition of rat muscle pyruvate kinase (PK-M) at 10 mM.
Experiment [9] concerns the target T2, Pyruvate kinase PKLR. Briefly: Inhibition of rat liver pyruvate kinase (PK-L) at 10.7 mM.

Each structure is given as a SMILES string. Where “and” joins values, the source holds several entries; their conditions need not be identical. Identical values can stand only once.

T1 sequence (P11980 whole entry): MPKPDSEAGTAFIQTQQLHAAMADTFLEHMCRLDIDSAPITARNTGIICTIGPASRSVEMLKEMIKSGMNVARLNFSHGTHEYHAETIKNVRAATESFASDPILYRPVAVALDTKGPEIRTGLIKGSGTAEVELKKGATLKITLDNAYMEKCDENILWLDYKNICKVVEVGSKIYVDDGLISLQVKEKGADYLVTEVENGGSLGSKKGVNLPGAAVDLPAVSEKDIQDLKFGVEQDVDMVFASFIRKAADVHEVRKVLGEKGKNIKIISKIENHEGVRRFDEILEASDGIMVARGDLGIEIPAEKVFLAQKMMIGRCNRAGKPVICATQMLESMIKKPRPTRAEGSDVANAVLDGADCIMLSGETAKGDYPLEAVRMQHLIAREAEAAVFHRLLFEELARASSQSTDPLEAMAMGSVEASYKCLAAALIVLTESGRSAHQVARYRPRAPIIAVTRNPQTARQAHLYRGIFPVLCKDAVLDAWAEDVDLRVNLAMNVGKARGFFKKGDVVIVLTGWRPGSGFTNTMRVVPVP
T2 sequence (P12928 whole entry): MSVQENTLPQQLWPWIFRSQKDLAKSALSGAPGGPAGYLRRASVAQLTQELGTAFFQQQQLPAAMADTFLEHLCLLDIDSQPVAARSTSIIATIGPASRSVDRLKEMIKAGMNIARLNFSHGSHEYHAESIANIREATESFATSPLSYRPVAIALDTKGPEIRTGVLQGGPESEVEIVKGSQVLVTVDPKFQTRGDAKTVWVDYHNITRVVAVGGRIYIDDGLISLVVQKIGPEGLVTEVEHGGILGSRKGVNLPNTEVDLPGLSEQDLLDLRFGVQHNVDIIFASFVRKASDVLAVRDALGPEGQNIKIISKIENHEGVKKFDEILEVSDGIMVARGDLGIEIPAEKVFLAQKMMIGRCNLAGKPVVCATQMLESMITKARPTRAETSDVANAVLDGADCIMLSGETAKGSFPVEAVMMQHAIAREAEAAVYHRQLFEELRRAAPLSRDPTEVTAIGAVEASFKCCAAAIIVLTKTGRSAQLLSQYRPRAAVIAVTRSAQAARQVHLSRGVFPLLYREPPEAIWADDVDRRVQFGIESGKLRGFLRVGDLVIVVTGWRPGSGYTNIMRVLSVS

The Ki is the equilibrium dissociation constant of an inhibitor or competing ligand from its target. Regarding `CCSc1nc2c(N)ncnc2n1C1O[C@H](COP(=O)(O)OP(=O)(O)O)[C@@H](O)[C@H]1O` (some centres not stated), the values for the inhibition constant Ki in [1] and in experiment [2] were 3.7 mM and 8.4 mM, respectively.

Turning to `CCCNc1nc2c(N)ncnc2n1C1O[C@H](COP(=O)(O)OP(=O)(O)O)[C@@H](O)[C@H]1O` (some centres not stated), the Ki was 1.6 mM in [3], 3.8 mM in experiment [4] and 0.9 mM in experiment [1].

With `CO[C@H]1[C@@H](O)[C@H](n2cnc3c(N)ncnc32)O[C@@H]1COP(=O)(O)OP(=O)(O)O`, the Ki was found to be 9.3 mM in experiment [1] and 32 mM in [2].

Take `CC1O[C@@H]2[C@H](O1)[C@@H](COP(=O)(O)OP(=O)(O)O)O[C@H]2n1cnc2c(N)ncnc21` (some centres not stated): the Ki in [5] stood at 2.2 mM; in experiment [1], 1.6 mM; in experiment [6] it was 4.6 mM.

Regarding `C[C@@H](OP(=O)(O)OP(=O)(O)O)[C@H]1OC(n2cnc3c(N)ncnc32)[C@H](O)[C@@H]1O` (some centres not stated), the Ki in experiment [7] turned out to be 7 mM; in experiment [8] it was 4.5 mM; in experiment [9], 5.4 mM.

For `CCNc1nc2c(N)ncnc2n1C1O[C@H](COP(=O)(O)OP(=O)(O)O)[C@@H](O)[C@H]1O` (some centres not stated), the Ki in experiment [1] was 0.5 mM and 0.87 mM; in experiment [2] it was 2.2 mM and 3.9 mM.

Regarding `CSc1nc2c(N)ncnc2n1C1O[C@H](COP(=O)(O)OP(=O)(O)O)[C@@H](O)[C@H]1O` (some centres not stated), the Ki in experiment [1] was found to be 4.3 mM; in experiment [2] it was 7.5 mM.
